Measured values published in ChEMBL document CHEMBL4196127, “Discovery of AM-6226: A Potent and Orally Bioavailable GPR40 Full Agonist That Displays Efficacy in Nonhuman Primates” (ACS Med Chem Lett, 2018).

Target: T1, Free fatty acid receptor 1 (Homo sapiens, UniProt O14842)
Experiment: Agonist activity at GPR40 (unknown origin) expressed in CHO cells incubated for 2 hrs measured over 20 secs in presence of human serum albumin by aequorin based luminescence assay
Assay type: functional, cell-based
Conditions: not given

T1 sequence (O14842 whole entry): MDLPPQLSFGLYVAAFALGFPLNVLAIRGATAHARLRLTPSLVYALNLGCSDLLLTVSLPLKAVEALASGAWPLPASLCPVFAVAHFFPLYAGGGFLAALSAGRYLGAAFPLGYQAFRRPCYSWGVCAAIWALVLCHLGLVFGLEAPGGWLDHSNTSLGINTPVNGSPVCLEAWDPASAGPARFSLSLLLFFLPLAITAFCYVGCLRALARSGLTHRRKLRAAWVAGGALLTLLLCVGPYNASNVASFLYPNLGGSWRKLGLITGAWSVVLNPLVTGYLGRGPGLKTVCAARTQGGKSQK

Row | Structure (SMILES) | EC50 [nM]
1 | CC[C@H](CC(=O)O)c1cccc(OCc2ccc(-c3cc(OC)ccc3F)c(C3CCCC3(C)C)c2)c1F (single isomer, unassigned) | 120
2 | COc1ccc(F)c(-c2ccc(COc3cccc([C@@H](CC(=O)O)CC4CC4)c3)cc2[C@@H]2CCCC2(C)C)c1 | 100
3 | COc1ccc(F)c(-c2ccc(COc3cccc([C@@H](CC(=O)O)C4CC4)c3F)cc2[C@@H]2CCCC2(C)C)c1 | 100
4 | CC[C@H](CC(=O)O)c1cccc(OCc2ccc(-c3cc(OC)ccc3F)c([C@@H]3CCCC3(C)C)c2)c1 | 80
5 | COc1ccc(F)c(-c2ccc(COc3cccc([C@@H](CC(=O)O)C4CCC4)c3)cc2[C@@H]2CCCC2(C)C)c1 | 90
6 | COc1ccc(F)c(-c2ccc(COc3cccc([C@H](C)CC(=O)O)c3)cc2[C@@H]2CCCC2(C)C)c1 | 170
7 | COc1ccc(F)c(-c2ccc(COc3cccc([C@@H](CC(=O)O)C4CC4)c3)cc2C2CCCC2(C)C)c1 (mixture of isomers) | 140

Target: T1, Free fatty acid receptor 1
Experiment: Agonist activity at GPR40 (unknown origin) expressed in CHO cells incubated for 2 hrs measured over 20 secs in presence of human serum albumin by aequorin based luminescence assay relative to AM-1638
Assay type: functional, cell-based
Conditions: not given

Row | Structure (SMILES) | Efficacy [%]
8 | COc1ccc(F)c(-c2ccc(COc3cccc([C@@H](CC(=O)O)C4CC4)c3)cc2C2=CCCC2(C)C)c1 | 100
9 | CC[C@H](CC(=O)O)c1cccc(OCc2ccc(-c3cc(OC)ccc3F)c(C3CCCC3(C)C)c2)c1F (single isomer, unassigned) | 104
10 | COc1ccc(F)c(-c2ccc(COc3cccc([C@@H](CC(=O)O)CC4CC4)c3)cc2[C@@H]2CCCC2(C)C)c1 | 98
11 | COc1ccc(F)c(-c2ccc(COc3cccc([C@@H](CC(=O)O)C4CC4)c3F)cc2[C@@H]2CCCC2(C)C)c1 | 100
12 | CC[C@H](CC(=O)O)c1cccc(OCc2ccc(-c3cc(OC)ccc3F)c([C@@H]3CCCC3(C)C)c2)c1 | 102
13 | COc1ccc(F)c(-c2ccc(COc3cccc([C@@H](CC(=O)O)C4CCC4)c3)cc2[C@@H]2CCCC2(C)C)c1 | 100
14 | COc1ccc(F)c(-c2ccc(COc3cccc([C@H](C)CC(=O)O)c3)cc2[C@@H]2CCCC2(C)C)c1 | 106
15 | COc1ccc(F)c(-c2ccc(COc3cccc([C@@H](CC(=O)O)C4CC4)c3)cc2C2CCCC2(C)C)c1 (mixture of isomers) | 97

System: not listed separately
Experiment: Fraction unbound in rat plasma at 0.5 mg/kg, iv or 2 mg/kg, po
Assay type: ADME, organism-based
Conditions: not given

Row | Structure (SMILES) | fraction unbound
16 | COc1ccc(F)c(-c2ccc(COc3cccc([C@@H](CC(=O)O)C4CC4)c3)cc2C2=CCCC2(C)C)c1 | 0.01
17 | CC[C@H](CC(=O)O)c1cccc(OCc2ccc(-c3cc(OC)ccc3F)c(C3CCCC3(C)C)c2)c1F (single isomer, unassigned) | 0.003
18 | COc1ccc(F)c(-c2ccc(COc3cccc([C@@H](CC(=O)O)C4CC4)c3F)cc2[C@@H]2CCCC2(C)C)c1 | 0.003
19 | CC[C@H](CC(=O)O)c1cccc(OCc2ccc(-c3cc(OC)ccc3F)c([C@@H]3CCCC3(C)C)c2)c1 | 0.006

System: not listed separately
Experiment: Cmax in rat at 2 mg/kg, po
Assay type: ADME, organism-based
Design: dose 2 mg/kg, route oral
Conditions: in vivo

Row | Structure (SMILES) | Cmax [nM]
20 | CC[C@H](CC(=O)O)c1cccc(OCc2ccc(-c3cc(OC)ccc3F)c(C3CCCC3(C)C)c2)c1F (single isomer, unassigned) | 1180
21 | COc1ccc(F)c(-c2ccc(COc3cccc([C@@H](CC(=O)O)C4CC4)c3F)cc2[C@@H]2CCCC2(C)C)c1 | 360
22 | CC[C@H](CC(=O)O)c1cccc(OCc2ccc(-c3cc(OC)ccc3F)c([C@@H]3CCCC3(C)C)c2)c1 | 370

System: not listed separately
Experiment: (§1) AUC in rat at 2 mg/kg, po
Assay type: ADME, organism-based
Conditions: in vivo

Row | Structure (SMILES) | AUC [µM·h]
23 | CC[C@H](CC(=O)O)c1cccc(OCc2ccc(-c3cc(OC)ccc3F)c(C3CCCC3(C)C)c2)c1F (single isomer, unassigned) | 8.22
24 | COc1ccc(F)c(-c2ccc(COc3cccc([C@@H](CC(=O)O)C4CC4)c3F)cc2[C@@H]2CCCC2(C)C)c1 | 2.43
25 | CC[C@H](CC(=O)O)c1cccc(OCc2ccc(-c3cc(OC)ccc3F)c([C@@H]3CCCC3(C)C)c2)c1 | 1.74

System: Rattus norvegicus
Experiment: as §1
Assay type: ADME, organism-based
Conditions: in vivo

Row | Structure (SMILES) | AUC [µM·h]
26 | COc1ccc(F)c(-c2ccc(COc3cccc([C@@H](CC(=O)O)C4CC4)c3)cc2C2=CCCC2(C)C)c1 | 15.1

System: not listed separately
Experiment: Half life in rat at 0.5 mg/kg, iv
Assay type: ADME, organism-based
Conditions: in vivo

Row | Structure (SMILES) | half-life [h]
27 | CC[C@H](CC(=O)O)c1cccc(OCc2ccc(-c3cc(OC)ccc3F)c(C3CCCC3(C)C)c2)c1F (single isomer, unassigned) | 2
28 | COc1ccc(F)c(-c2ccc(COc3cccc([C@@H](CC(=O)O)C4CC4)c3F)cc2[C@@H]2CCCC2(C)C)c1 | 3.3
29 | CC[C@H](CC(=O)O)c1cccc(OCc2ccc(-c3cc(OC)ccc3F)c([C@@H]3CCCC3(C)C)c2)c1 | 2.1

System: not listed separately
Experiment: Oral bioavailability in rat at 2 mg/kg
Assay type: ADME, organism-based
Conditions: in vivo

Row | Structure (SMILES) | bioavailability [%]
30 | CC[C@H](CC(=O)O)c1cccc(OCc2ccc(-c3cc(OC)ccc3F)c(C3CCCC3(C)C)c2)c1F (single isomer, unassigned) | 72
31 | COc1ccc(F)c(-c2ccc(COc3cccc([C@@H](CC(=O)O)C4CC4)c3F)cc2[C@@H]2CCCC2(C)C)c1 | 32
32 | CC[C@H](CC(=O)O)c1cccc(OCc2ccc(-c3cc(OC)ccc3F)c([C@@H]3CCCC3(C)C)c2)c1 | 29

System: not listed separately
Experiment: Fraction unbound in dog plasma at 0.5 mg/kg, iv
Assay type: ADME, organism-based, Canis lupus familiaris
Conditions: not given

Row | Structure (SMILES) | fraction unbound
33 | CC[C@H](CC(=O)O)c1cccc(OCc2ccc(-c3cc(OC)ccc3F)c(C3CCCC3(C)C)c2)c1F (single isomer, unassigned) | 0.034

System: not listed separately
Experiment: Fraction unbound in cynomolgus monkey plasma at 0.5 mg/kg, iv
Assay type: ADME, organism-based, Macaca fascicularis
Conditions: not given

Row | Structure (SMILES) | fraction unbound
34 | COc1ccc(F)c(-c2ccc(COc3cccc([C@@H](CC(=O)O)C4CC4)c3)cc2C2=CCCC2(C)C)c1 | 0.012
35 | CC[C@H](CC(=O)O)c1cccc(OCc2ccc(-c3cc(OC)ccc3F)c(C3CCCC3(C)C)c2)c1F (single isomer, unassigned) | 0.017

System: not listed separately
Experiment: AUC in dog at 2 mg/kg, po
Assay type: ADME, organism-based, Canis lupus familiaris
Conditions: in vivo

Row | Structure (SMILES) | AUC [µM·h]
36 | CC[C@H](CC(=O)O)c1cccc(OCc2ccc(-c3cc(OC)ccc3F)c(C3CCCC3(C)C)c2)c1F (single isomer, unassigned) | 11.6

System: not listed separately
Experiment: AUC in cynomolgus monkey at 10 mg/kg, po
Assay type: ADME, organism-based, Macaca fascicularis
Conditions: in vivo

Row | Structure (SMILES) | AUC [µM·h]
37 | COc1ccc(F)c(-c2ccc(COc3cccc([C@@H](CC(=O)O)C4CC4)c3)cc2C2=CCCC2(C)C)c1 | 18.8
38 | CC[C@H](CC(=O)O)c1cccc(OCc2ccc(-c3cc(OC)ccc3F)c(C3CCCC3(C)C)c2)c1F (single isomer, unassigned) | 80.4

System: Canis familiaris
Experiment: Volume of distribution at steady state in dog at […]
Assay type: ADME, organism-based, Canis lupus familiaris
Conditions: in vivo

Row | Structure (SMILES) | Vdss [L/kg]
39 | CC[C@H](CC(=O)O)c1cccc(OCc2ccc(-c3cc(OC)ccc3F)c(C3CCCC3(C)C)c2)c1F (single isomer, unassigned) | 0.68

System: Cynomolgus monkey
Experiment: Volume of distribution at steady state in cynomolgus monkey at […]
Assay type: ADME, organism-based, Macaca fascicularis
Conditions: in vivo

Row | Structure (SMILES) | Vdss [L/kg]
40 | COc1ccc(F)c(-c2ccc(COc3cccc([C@@H](CC(=O)O)C4CC4)c3)cc2C2=CCCC2(C)C)c1 | 2
41 | CC[C@H](CC(=O)O)c1cccc(OCc2ccc(-c3cc(OC)ccc3F)c(C3CCCC3(C)C)c2)c1F (single isomer, unassigned) | 0.5

System: not listed separately
Experiment: Half life in dog at 0.5 mg/kg, iv
Assay type: ADME, organism-based, Canis lupus familiaris
Conditions: in vivo

Row | Structure (SMILES) | half-life [h]
42 | CC[C@H](CC(=O)O)c1cccc(OCc2ccc(-c3cc(OC)ccc3F)c(C3CCCC3(C)C)c2)c1F (single isomer, unassigned) | 4.1

System: not listed separately
Experiment: Half life in cynomolgus monkey at 0.5 mg/kg, iv
Assay type: ADME, organism-based, Macaca fascicularis
Conditions: in vivo

Row | Structure (SMILES) | half-life [h]
43 | CC[C@H](CC(=O)O)c1cccc(OCc2ccc(-c3cc(OC)ccc3F)c(C3CCCC3(C)C)c2)c1F (single isomer, unassigned) | 3.3

System: not listed separately
Experiment: Oral bioavailability in dog at 2 mg/kg
Assay type: ADME, organism-based, Canis lupus familiaris
Conditions: in vivo

Row | Structure (SMILES) | bioavailability [%]
44 | CC[C@H](CC(=O)O)c1cccc(OCc2ccc(-c3cc(OC)ccc3F)c(C3CCCC3(C)C)c2)c1F (single isomer, unassigned) | 62

System: not listed separately
Experiment: Oral bioavailability in cynomolgus monkey at 10 mg/kg
Assay type: ADME, organism-based, Macaca fascicularis
Conditions: in vivo

Row | Structure (SMILES) | bioavailability [%]
45 | COc1ccc(F)c(-c2ccc(COc3cccc([C@@H](CC(=O)O)C4CC4)c3)cc2C2=CCCC2(C)C)c1 | 71
46 | CC[C@H](CC(=O)O)c1cccc(OCc2ccc(-c3cc(OC)ccc3F)c(C3CCCC3(C)C)c2)c1F (single isomer, unassigned) | 91

System: Cynomolgus monkey
Experiment: Antidiabetic activity in prediabetic high fat feed cynomolgus monkey assessed as reduction in plasma glucose AUC at 10 mg/kg, po administered via gavage 2 hrs prior to glucose challenge by oral glucose tolerance test
Assay type: functional, Macaca fascicularis
Design: scale not given: the % may be the effect or the level left
Conditions: not given

Row | Structure (SMILES) | Activity [%]
47 | CC[C@H](CC(=O)O)c1cccc(OCc2ccc(-c3cc(OC)ccc3F)c(C3CCCC3(C)C)c2)c1F (single isomer, unassigned) | 18
48 | N[C@@H](CC(=O)N1CCn2c(nnc2C(F)(F)F)C1)Cc1cc(F)c(F)cc1F [SITAGLIPTIN] | 13

System: not listed separately
Experiment: Clearance in rat at 0.5 mg/kg, iv
Conditions: in vivo

Row | Structure (SMILES) | clearance [mL/min/kg]
49 | CC[C@H](CC(=O)O)c1cccc(OCc2ccc(-c3cc(OC)ccc3F)c(C3CCCC3(C)C)c2)c1F (single isomer, unassigned) | 5.5
50 | COc1ccc(F)c(-c2ccc(COc3cccc([C@@H](CC(=O)O)C4CC4)c3F)cc2[C@@H]2CCCC2(C)C)c1 | 8.17
51 | CC[C@H](CC(=O)O)c1cccc(OCc2ccc(-c3cc(OC)ccc3F)c([C@@H]3CCCC3(C)C)c2)c1 | 11.2

System: Rattus norvegicus
Experiment: Clearance in rat at 0.5 mg/kg, iv
Conditions: in vivo

Row | Structure (SMILES) | CL [mL/min/kg]
52 | COc1ccc(F)c(-c2ccc(COc3cccc([C@@H](CC(=O)O)C4CC4)c3)cc2C2=CCCC2(C)C)c1 | 15.2

System: not listed separately
Experiment: Clearance in dog at 0.5 mg/kg, iv
Conditions: in vivo

Row | Structure (SMILES) | clearance [mL/min/kg]
53 | CC[C@H](CC(=O)O)c1cccc(OCc2ccc(-c3cc(OC)ccc3F)c(C3CCCC3(C)C)c2)c1F (single isomer, unassigned) | 3.5

System: not listed separately
Experiment: Clearance in cynomolgus monkey at 0.5 mg/kg, iv
Conditions: in vivo

Row | Structure (SMILES) | clearance [mL/min/kg]
54 | COc1ccc(F)c(-c2ccc(COc3cccc([C@@H](CC(=O)O)C4CC4)c3)cc2C2=CCCC2(C)C)c1 | 13.5
55 | CC[C@H](CC(=O)O)c1cccc(OCc2ccc(-c3cc(OC)ccc3F)c(C3CCCC3(C)C)c2)c1F (single isomer, unassigned) | 3.67

System: Rattus norvegicus
Experiment: Volume of distribution at steady state in rat at 0.5 mg/kg, iv
Conditions: in vivo

Row | Structure (SMILES) | Vdss [L/kg]
56 | COc1ccc(F)c(-c2ccc(COc3cccc([C@@H](CC(=O)O)C4CC4)c3)cc2C2=CCCC2(C)C)c1 | 1.1
57 | CC[C@H](CC(=O)O)c1cccc(OCc2ccc(-c3cc(OC)ccc3F)c(C3CCCC3(C)C)c2)c1F (single isomer, unassigned) | 0.81
58 | COc1ccc(F)c(-c2ccc(COc3cccc([C@@H](CC(=O)O)C4CC4)c3F)cc2[C@@H]2CCCC2(C)C)c1 | 1.9
59 | CC[C@H](CC(=O)O)c1cccc(OCc2ccc(-c3cc(OC)ccc3F)c([C@@H]3CCCC3(C)C)c2)c1 | 1.12
